The results in this text go back to US20060084599A1, “Compositions, methods and kits relating to notch signaling” (Maine Medical Center, priority 2003, published 2006).

Data set [1] has as its system CSL1-dependent transcription. Put plainly: Dual luciferase reporter assay of CSL1-dependent transcription (Example 2). The class given is cell-based, murine. As for the experimental part: Insert-less vector control and sJ1 NIH 3T3 cell transfectants (approximately 3×10^4) were plated on fibronectin-coated (10 μg/cm^2) cell culture dishes and the cells were transiently transfected at approximately 50% confluency with 500 ng of a luciferase construct containing four tandem copies of the CBF1 response element (Small et al., 2001, J. Biol. Chem. 276:32022-32030).
Cotransfection with 100 ng of the TK Renilla (Promega) construct was used as an internal control for transfection efficiency using Fugene 6 (Roche), according to the manufacturer's instructions. Cells were treated with or without 10, […] hours after transfection, harvested 48 hours after the transfection and luciferase/renilla activity measured using the Dual Luciferase Reporter Assay System (Promega). Each experiment was performed in triplicate.

The next data set concerns the target Notch receptor. Kind of data set: cell-based or functional assay.
In data set [2] the test system is in vitro translation product of the Delta1 transcript.
Data set [3] relates to full-length human Jagged1, in vitro translation product.
Data set [4] relates to NIH 3T3 stable transfectants. Put plainly: FGF1-induced spheroid formation. It counts as cell-based, murine. As to the method:
Clonal populations of NIH 3T3 stable transfectants were resuspended and grown in media containing 10% BCS, 10% BCS containing 1 μM PD166866, 10% BCS containing 10 ng/ml recombinant human FGF1 and 10 U/ml heparin or 10% BCS containing 10 ng/ml recombinant human FGF 1, 10 U/ml heparin and 1 μM PD 166866 as indicated in the figure legend. Approximately 2×10^5 cells were plated per well (6-well dish) and three days after plating, phase-contrast micrographs of the cells were taken.

The subject of data set [5] is NIH 3T3 cell transfectants. Put plainly: Colony formation in soft agar (anchorage-independent growth). It counts as cell-based, murine. As to the method: Clonal populations of NIH 3T3 cells stably transfected with vector control, soluble Jagged1 (sJ1), constitutively active Notch1 (caN1), constitutively active Notch 2 (caN2), dominant negative Notch 1 (dnN1), dominant negative Notch 2 (dnN2), an oncogenic mutant of FGF1 engineered with the FGF4 signal peptide sequence (hst-β (FGF4):FGF1), or constitutively active oncogenic Ras construct (caRas), were plated on 6 cm tissue culture dishes with 0.5% agar in an overlay containing DMEM (Gibco BRL) media, 10% bovine calf serum (BCS; Hyclone), and 0.33% agar at 1.5×10^3 cells/dish. As indicated, some dishes were also treated with 1 μM of the FGFR1-specific inhibitor, PD166866 (Panek et al., 1998, J. Pharmacol. Exp. Ther. 286: 569-577) and/or 10 ng/ml recombinant human FGF1 and 10 U/ml heparin (Sigma). Cells were fed with 0.5 ml of media with or without FGF1 and/or the FGFR1-specific inhibitor every 3 days as indicated. Twenty days after plating, colonies were stained with p-iodonitrotetrazolium violet (Sigma) for visualization. Quantitation of colony formation was achieved by counting all p-iodonitrotetrazolium violet-stained colonies consisting of more than 4 cells under a Zeiss Stemi SVII Apo dissecting microscope.
Anchorage-Dependent and -Independent Cell Growth Assays. Approximately 3×10^4 cells were plated on fibronectin (10 μg/cm^2)-coated in 12-well cell culture dishes (Falcon) in DMEM containing 10% BCS (v/v) (Hyclone). Three wells of the individual NIH 3T3 cell transfectants were harvested every third day and cell number was quantitated using a hemocytometer. Anchorage-independent cell growth was evaluated by plating in duplicate approximately 1.7×10^3 cells in DMEM containing 0.5% (w/v) agar (Sigma) 10% (v/v) BCS into 5 cm plastic dishes (Falcon) as previously described (Small et al., 2003, J. Biol. Chem. 278:16405-16413).

For data set [6], the system named is caN1/CSL-activated transcription. Put plainly: Transient transfection assay of CSL-regulated transcription (Example 1). It counts as cell-based, murine. The note with it: exogenous FGF1 1-10 ng/ml; caN1 transfectants. As for the experimental part:
NIH 3T3 cells were plated onto fibronectin-coated (10 μg/cm2) 12-well tissue culture dishes and transiently transfected at approximately 80% confluency with 500 ng of a Luciferase construct activated by 4 tandem copies of the CSL (CBF1) response element (Hsieh et al. 1996, Mol. Cell. Biol. 16: 952-959), 100 ng of the TK Renilla (Promega) construct as an internal control for transfection efficiency, and 500 ng of either vector control, sJ1 or caN1 constructs using Fugene 6 (Roche) per manufacturer's instructions. For analysis of caN1 activity in the background of NIH 3T3 stable lines, vector control, caN1, sJ1 and hst-β(FGF4):FGF1 stable transfectants were plated onto fibronectin-coated (10 μg/cm2) 12-well tissue culture dishes and transiently transfected with 500 ng of the CSL-Luciferase construct, 100 ng of the TK Renilla (Promega) construct as an internal control for transfection efficiency, and 200 ng of caN1. […] The cells were harvested 48 hours after the media change and Luciferase/Renilla activity was measured using Promega's Dual-Luciferase Reporter Assay System. The efficiency of transcription was measured and normalized in relationship to the activity of pRL-TK Renilla and the activity is reported as the ratio of Luciferase/Renilla activity. […]

The next data set concerns Jagged1. Put plainly: Jagged1 expression by immunoblot. It counts as cell-based, murine. The note with it: 10 ng/ml FGF1 and 10 U/ml heparin in growth media. As for the experimental part:
Vector control, SJ1, CaN1, J1, Hstβ(FGF4):FGF1 and sJ1:caN1 stable NIH 3T3 cell transfectants were plated on tissue culture dishes in either normal growth media (DMEM (Gibco BRL) media, 10% bovine calf serum (BCS; Hyclone)) or normal growth media containing 10 ng/ml recombinant FGF1 and 10 U/mi heparin. Cells were harvested at confluency (based on status of vector control cells grown in normal growth media).
Because hst-β(FGF4):FGF1 stable transfectants and the sJ1 transfectants grown in FGF 1-containing media form spheroids, all cells were harvested by scraping in the presence of the growth media dn then the cells/growth media was collected into sterile 15 ml conical tubes. Cells were pelleted by centrifugation at 800×g for 5′ at 4° C. After centrifugation, the supernatant was removed and the cell pellets were washed 3× with 1×PBS. Cells were lysed in 500 μl in 20 mM tris, pH 7.5 containing 300 mM sucrose, 60 mM KCl, 15 mM NaCl, 0.5 mM EDTA, 0.5% (v/v) Triton X-100 1 mM Phenymethyl sulfonyl flouride, 0.1% SDS, 2 μg/ml aprotinin, […], 10 μg/ml leupeptin, and 1 mM sodium orthovanadate for 15 minutes on ice. Cell lysates were pelleted and the supernatant containing soluble proteins removed.
Samples were normalized to protein concentration using the BCA Protein Assay Kit (Pierce). […]

For data set [7], the target named is full-length human Jagged1 on NIH 3T3 cell transfectants (human) (UniProt P78504). Put plainly: cell-based or functional assay.
The target of the next data set is FGFR1 (mouse) (UniProt P16092). Kind of data set: cell-based or functional assay.
Sequence of FGFR1 (mouse) (P16092 22-822): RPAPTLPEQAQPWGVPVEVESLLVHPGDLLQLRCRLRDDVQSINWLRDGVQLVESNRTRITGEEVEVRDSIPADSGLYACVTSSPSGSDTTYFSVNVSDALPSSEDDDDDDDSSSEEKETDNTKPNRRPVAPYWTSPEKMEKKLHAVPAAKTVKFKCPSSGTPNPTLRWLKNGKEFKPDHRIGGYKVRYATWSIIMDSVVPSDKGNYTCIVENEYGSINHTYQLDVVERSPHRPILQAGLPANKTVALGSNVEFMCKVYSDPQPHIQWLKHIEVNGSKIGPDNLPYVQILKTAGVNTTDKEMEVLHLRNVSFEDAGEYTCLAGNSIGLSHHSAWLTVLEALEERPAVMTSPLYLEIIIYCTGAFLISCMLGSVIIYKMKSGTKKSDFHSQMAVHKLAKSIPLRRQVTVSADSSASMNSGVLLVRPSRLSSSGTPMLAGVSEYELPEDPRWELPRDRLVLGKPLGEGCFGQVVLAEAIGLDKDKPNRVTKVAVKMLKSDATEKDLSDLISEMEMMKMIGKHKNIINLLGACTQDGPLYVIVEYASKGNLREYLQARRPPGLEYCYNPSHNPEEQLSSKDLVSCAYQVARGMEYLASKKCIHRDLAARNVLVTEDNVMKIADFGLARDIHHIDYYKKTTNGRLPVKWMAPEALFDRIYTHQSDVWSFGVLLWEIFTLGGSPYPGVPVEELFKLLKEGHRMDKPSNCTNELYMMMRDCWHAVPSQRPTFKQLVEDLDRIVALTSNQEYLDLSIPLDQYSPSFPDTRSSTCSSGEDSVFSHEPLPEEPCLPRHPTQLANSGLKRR

Sequence of full-length human Jagged1 on NIH 3T3 cell transfectants (human) (P78504 34-1218 A1171G limits assumed): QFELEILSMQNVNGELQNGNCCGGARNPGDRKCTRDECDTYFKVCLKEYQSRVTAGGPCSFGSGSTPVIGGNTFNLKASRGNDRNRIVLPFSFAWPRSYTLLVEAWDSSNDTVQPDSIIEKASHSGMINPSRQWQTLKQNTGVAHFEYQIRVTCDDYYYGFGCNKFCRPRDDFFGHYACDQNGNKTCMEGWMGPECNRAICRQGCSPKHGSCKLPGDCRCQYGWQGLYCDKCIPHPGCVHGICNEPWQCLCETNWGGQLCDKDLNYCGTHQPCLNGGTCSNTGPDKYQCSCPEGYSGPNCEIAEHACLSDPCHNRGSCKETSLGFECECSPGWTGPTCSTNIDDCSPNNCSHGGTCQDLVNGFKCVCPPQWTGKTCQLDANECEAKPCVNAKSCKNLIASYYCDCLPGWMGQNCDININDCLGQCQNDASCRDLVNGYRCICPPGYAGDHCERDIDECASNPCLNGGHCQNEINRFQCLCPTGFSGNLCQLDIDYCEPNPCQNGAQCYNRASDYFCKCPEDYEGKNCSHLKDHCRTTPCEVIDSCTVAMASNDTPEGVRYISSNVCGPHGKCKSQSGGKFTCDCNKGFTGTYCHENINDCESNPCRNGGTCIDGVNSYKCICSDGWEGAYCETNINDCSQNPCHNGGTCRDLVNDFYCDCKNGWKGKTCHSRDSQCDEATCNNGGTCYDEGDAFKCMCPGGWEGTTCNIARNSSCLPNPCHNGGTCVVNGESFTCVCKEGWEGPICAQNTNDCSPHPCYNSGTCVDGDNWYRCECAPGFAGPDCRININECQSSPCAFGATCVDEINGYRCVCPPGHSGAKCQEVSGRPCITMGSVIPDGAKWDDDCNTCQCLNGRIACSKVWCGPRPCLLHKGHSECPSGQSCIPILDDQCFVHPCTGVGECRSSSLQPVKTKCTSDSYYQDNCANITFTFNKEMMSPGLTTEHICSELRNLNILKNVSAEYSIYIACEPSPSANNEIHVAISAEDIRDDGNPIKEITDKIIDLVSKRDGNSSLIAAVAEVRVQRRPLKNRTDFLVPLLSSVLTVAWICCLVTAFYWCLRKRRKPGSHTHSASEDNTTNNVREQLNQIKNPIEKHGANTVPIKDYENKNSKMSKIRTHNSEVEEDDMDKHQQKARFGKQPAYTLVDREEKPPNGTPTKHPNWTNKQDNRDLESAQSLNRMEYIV

As for heparin [reference compound], in data set [1] (heparin 5 units/ml with thrombin 10 μg/ml, full-length Jagged1 NIH 3T3 transfectants), the “effect of heparin on thrombin-dependent repression of CSL1-dependent transcription” value is given as “able to potentiate the thrombin-dependent repression of CSL1-dependent transcription”. For the same compound, the “effect of heparin on CSL1-dependent transcription” value in data set [1] (heparin by itself or with 10 μM TRAP) is on record as “ineffective in altering CSL1-dependent transcription”.
As for “soluble Jagged1 (sJ1) (from UniProt P78504 34-1067) (ligand)”, the CSL1-dependent transcription (dual luciferase reporter) (% of the control level) in the data set with Notch receptor amounted to 25.
Consider α-thrombin, for which the “proteolytic cleavage of the in vitro translation product” value in data set [2] is on record as “thrombin was unable to proteolytically modify the in vitro translation product of the Delta1 transcript”. Also, the “proteolytic cleavage of in vitro translated (35S)-labelled Jagged1, SDS-PAGE and autoradiography” value in data set [3] is “cleavage of the full-length Jagged1 protein into 39 kDa and 95 kDa fragments”.
Take “FGF1: recombinant human FGF1 (acidic FGF)”: the “spheroid formation in Notch-repressed (sJ1, dnN1) NIH 3T3 cells” value in data set [4] (10 ng/ml recombinant FGF1 and 10 U/ml heparin) is “formed multicellular, spheroid-like structures”. Also, the “CSL1-dependent transcription, level relative to control” value in [1] (thrombin on full-length Jagged1 NIH 3T3 transfectants, sJ1 expression, 10 ng/ml exogenous FGF1) is listed as “approximately 25 % of the control level”. Further, the “effect on colonies formed by sJ1 and dnN1 transfectants” value in [5] (10 ng/ml FGF1 in growth media) is “greatly exaggerated the size of the colonies”. In addition, the “effect on caN1/CSL transcription” value in [6] is “repressed caN1/CSL transcription in a dose-dependent fashion”. Moreover, the “effect on Jagged1 expression” value in the data set with Jagged1 is on record as “increased Jagged1 expression in all stable lines examined”.
For `COc1cc(OC)cc(-c2cc3cnc(N)nc3nc2NC(=O)NC(C)(C)C)c1` [PD166866], the “effect on FGF1-induced spheroid formation” value in data set [4] (1 μM PD166866, sJ1, dnN1 and hst-β(FGF4):FGF1 transfectants) is given as “completely abolished FGF1-induced spheroid formation”. The “effect on anchorage-independent growth of sDl1 NIH 3T3 cell transfectants” value in data set [5] is listed as “completely inhibited”. In data set [5] (1 μM), the “effect on colony formation in caRas cells” value was “had no effect on colony formation in the caRas cells”; the “effect on colony growth of sJ1 and dnN1 in the absence of FGF1” value is “inhibited small colony growth”. Also, in [5] (1 μM, sJ1, dnN1 and hst-β(FGF4):FGF1 transfectants), the “effect on FGF1-mediated colony formation” value is “substantially reduced FGF1-mediated colony formation”.
In the case of α-thrombin (enzyme), in data set [7], the CSL1-dependent transcription (dual luciferase reporter) in full-length Jagged1 NIH 3T3 cell transfectants (% of the control level) came to 75.
Regarding “recombinant FGF1 (from UniProt P05230 16-155) (ligand)”, in the data set with FGFR1 (mouse), the DNA synthesis ((3H)-thymidine-labelled nuclei) in Swiss 3T3 cells expressing dnFGFR1 was 70 % reduction.
